{"source": "patent US20020165133A1", "about": "(priority 2001, published 2002)", "tested_on": "C57BL/6 mice", "experiment": "Test of hair regrowth effects on the shaved backs of C57BL/6 mice", "type": "in vivo", "conditions": "C57BL/6 mice (female), applied over hair removed area once a day for 30 days, 100 μl (0.05% w/v)", "excerpt": "C57BL/6 mice (female), 42˜49 days old, were used in this test.\nThe mice were removed of hair on their backs using an electric shaver, and weighed. The mice were divided into several groups with weights equally distributed. […] The degree of hair growth were judged by naked eye and the back sides of the mice were photographed.", "note": "Entries after “also recorded” stand apart in the source; their conditions may differ."}
{"substance": "[Leu^4]cyclosporin A [M21]", "values": [{"measurement": "hair growth effect (degree of hair growth judged by naked eye)", "result": "no significant effect; also recorded: no hair growth effect"}]}
